Assays:
[1] = tested on: C3Tag mouse model of breast cancer; test: C3Tag mouse model of breast cancer; type: in vivo
Source text: The C31-T-antigen (C3Tag) mouse model is a validated model of human triple-negative basal cell breast cancer as shown by gene expression analysis (Maroulakou, 1994, Proc Natl Acad Sci, 91:11236-40, herein incorporated by reference). The expressed large T-antigen binds and inactivates the RB and p53 tumor suppressor genes, explaining why this model faithfully recapitulates human basal breast cancer, which also harbors RB and p53 inactivation. This model also has frequent K-Ras amplification and infrequent Ras mutations. Treatment regimens were started following tumor manifestation. SX-682 was given orally via medicated feed, at an approximate dose of 10 mg/day/mouse. CP was administered once weekly via intraperitoneal injection at a dose of 50 mg/kg.

[2] = tested on: TRIA mouse model of melanoma; test: TRIA mouse model of melanoma
MDSCs = test: GROα-mediated MDSC migration; type: cell-based, mouse; conditions: 0.1, 1 and 10 μM, 100 ng/ml GROα, 12 hours
Procedure: Using the of method of Katoh 2013 to induce and isolate MDSCs, male BALBc mice were given a single intraperitoneal injection of azoxymethane (AOM, 10 mg/kg). Seven days later, these mice were given 4 cycles of water and water containing 1.25% dextran sulfate sodium (DSS). One cycle consisted of providing mice with regular drinking water for 7 days, followed by 1.25% aqueous DSS for 7 days, followed by regular drinking water for 7 days. MDSCs were isolated from femurs and blood of AOM/DSS-treated BALBc mice using the Myeloid-Derived Suppressor Cell Isolation Kit (Miltenyi Biotec) after lysis of red blood cells (RBC) according to the manufacturer's instructions. GROα (CXCL1) was placed in the bottom chamber of a 24-well plate at a concentration of 100 ng/ml. MDSCs isolated from blood of AOM/DSS-treated BALBc mice were seeded at a density of 1×10^6/well in the upper chamber (3 m, BD Falcon). After incubation for 12 hours, migrated cells were quantified by flow cytometry using COUNTBRIGHT™ Absolute Counting Beads (Molecular Probes). To evaluate the effect of SX-682 on GROα-mediated MDSC migration, aqueous DMSO solutions of SX-682 were added to the MDSC-seeded wells prior to migration. The test concentrations of SX-682 were 0.1, 1 and 10 μM, and the DMSO concentration was <1%.

[3] = SX-682 10 mg/day/mouse oral feed + CP 50 mg/kg weekly i.p.

O=C(Nc1ccc(F)cc1)c1cnc(SCc2cc(OC(F)(F)F)ccc2B(O)O)nc1 [SX-682, 2-(2-boronic acid-5-trifluoromethoxy-benzylsulfanyl)-pyrimidine-5-carboxylic acid (4-fluoro-phenyl)-amide]
tumor growth vs untreated controls, SX-682 alone ([1]; 10 mg/day/mouse oral feed): significantly reduced tumor growth
median survival, SX-682 combined with CP [1, 3]: > 60 days
tumor growth vs untreated controls, SX-682 in combination with carboplatin [1, 3]: significantly reduced tumor growth
median survival, single agent ([1]; SX-682 10 mg/day/mouse oral, carboplatin 50 mg/kg weekly i.p., vehicle 18 days): 28 days
tumor growth, SX-682 alone ([2]; 10 mg/day/mouse oral feed): significantly slowed tumor growth
complete remission (zero tumor volume), SX-682 combination with CP [2, 3]: 5 of 11
GROα-mediated MDSC migration (MDSCs): effectively inhibit GROα-mediated MDSC migration in a dose-dependent manner

From patent US10561676B2, “Method for treating cancer using dual antagonists of CXCR1 and CXCR2” (Syntrix Biosystems, Inc., priority 2018, dated 2020)
